Active and inactive are the calls of the source. The rule behind the calls is not given here.
How the values were obtained:
[1] = test system: Rattus norvegicus; assay: Ex-vivo receptor occupancy of orexin receptor-2 Sprague-Dawley rat frontal cortex using [3H]EMPA at 1 mg/kg, po after 1 hr by autoradiography relative to control; assay type: functional
[2] = Plasma concentration in Sprague-Dawley rat plasma at 1 mg/kg, po after 1 hr; assay type: ADME, organism-based
[3] = test system: Rattus norvegicus; assay: Antiinsomnic activity in CD1 rat assessed as effect on sleep architecture at 30 mg/kg, po administered at 18 hrs at circadian time; assay type: functional, organism-based
[4] = biological target: T1, Orexin/Hypocretin receptor type 1 (Homo sapiens) (UniProt O43613)
T1 sequence (whole entry): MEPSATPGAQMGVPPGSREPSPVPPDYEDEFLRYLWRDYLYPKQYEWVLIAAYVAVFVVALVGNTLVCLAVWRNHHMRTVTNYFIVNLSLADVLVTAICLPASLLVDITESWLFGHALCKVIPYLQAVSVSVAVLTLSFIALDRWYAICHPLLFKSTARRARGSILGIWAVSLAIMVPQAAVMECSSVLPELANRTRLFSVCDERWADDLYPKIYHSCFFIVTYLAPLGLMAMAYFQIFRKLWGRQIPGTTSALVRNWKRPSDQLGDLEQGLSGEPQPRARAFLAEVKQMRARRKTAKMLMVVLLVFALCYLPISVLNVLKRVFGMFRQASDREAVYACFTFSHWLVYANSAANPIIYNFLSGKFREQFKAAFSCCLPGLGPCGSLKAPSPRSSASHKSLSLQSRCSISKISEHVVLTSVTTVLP

[5] = biological target: T2, Orexin receptor type 2 (Homo sapiens) (UniProt O43614)
T2 sequence (whole entry): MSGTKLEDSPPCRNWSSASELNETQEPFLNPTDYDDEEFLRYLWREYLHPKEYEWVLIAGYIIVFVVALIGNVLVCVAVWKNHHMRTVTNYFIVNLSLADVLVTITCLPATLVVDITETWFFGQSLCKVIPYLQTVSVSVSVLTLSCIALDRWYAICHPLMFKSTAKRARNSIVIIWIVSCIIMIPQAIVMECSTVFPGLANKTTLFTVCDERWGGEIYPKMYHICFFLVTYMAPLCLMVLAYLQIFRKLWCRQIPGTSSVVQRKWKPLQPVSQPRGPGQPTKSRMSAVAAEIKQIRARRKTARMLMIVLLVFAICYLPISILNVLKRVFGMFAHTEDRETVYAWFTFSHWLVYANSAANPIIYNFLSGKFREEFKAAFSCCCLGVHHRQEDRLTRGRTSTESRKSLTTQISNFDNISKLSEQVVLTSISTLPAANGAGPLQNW
Description: Binding affinity to orexin receptor-2 (unknown origin) assessed as dissociation half-life by SPR assay

[6] = biological target: T2, Orexin receptor type 2 (Homo sapiens); remark: listed apart in the source
Description: Binding affinity to orexin receptor-2 (unknown origin) assessed as dissociation half-life by Motulsky-Mahan radioligand binding assay

[7] = biological target: T3, Orexin/Hypocretin receptor type 1 (Homo sapiens, UniProt O43613); assay: Displacement of [3H]-4-(2,6-Difluoro-4-methoxybenzyl)-2-(5,6-dimethoxypyridin-3-yl)-2H-1,2,4-benzothiadiazin-3(4H)-one 1,1-dioxide from orexin receptor-1 (unknown origin) after 90 mins
T3 sequence (O43613 whole entry): T1 sequence (whole entry)

[8] = biological target: T4, Orexin receptor type 2 (Homo sapiens, UniProt O43614); assay: Displacement of [3H]EMPA from human orexin receptor-2 expressed in HEK293 cells after 90 mins by scintillation counting; assay type: cell-based
T4 sequence (O43614 whole entry): T2 sequence (whole entry)

[9] = Half life in rat liver microsomes; assay type: ADME
[10] = Clearance in Sprague-Dawley rat at 1 mg/kg, iv; assay type: ADME, organism-based; details: in vivo
[11] = Clearance in beagle dog at 2 mg/kg, iv; assay type: ADME, organism-based, Canis lupus familiaris; details: in vivo
[12] = Volume of distribution at steady state in Sprague-Dawley rat at 1 mg/kg, iv; assay type: ADME, organism-based; details: in vivo, read-out: Vdss
[13] = Volume of distribution at steady state in beagle dog at 2 mg/kg, iv; assay type: ADME, organism-based, Canis lupus familiaris; details: in vivo, read-out: Vdss
[14] = Ratio of drug level in brain to plasma in Sprague-Dawley rat at 1 mg/kg, iv after 0.5 hrs; assay type: ADME, organism-based; details: read-out: BPR
[15] = Ratio of drug level in cerebrospinal fluid to brain in Sprague-Dawley rat at 1 mg/kg, iv after 0.5 hrs; assay type: ADME, organism-based, CSF/Brain; details: in vivo
[16] = Half life in Sprague-Dawley rat at 2 mg/kg, po; assay type: ADME, organism-based; details: in vivo
[17] = Half life in beagle dog at 2 mg/kg, po; assay type: ADME, organism-based, Canis lupus familiaris; details: in vivo
[18] = test system: Rattus norvegicus; assay: AUC (infinity) in Sprague-Dawley rat at 2 mg/kg, po; assay type: ADME, organism-based; set-up: dose 2 mg/kg, route oral, time infinity; details: in vivo
[19] = test system: Canis familiaris; assay: AUC (infinity) in beagle dog at 2 mg/kg, po; assay type: ADME, organism-based, Canis lupus familiaris; set-up: dose 2 mg/kg, route oral, time infinity; details: in vivo
[20] = Tmax in Sprague-Dawley rat at 2 mg/kg, po; assay type: ADME, organism-based; details: in vivo
[21] = Tmax in beagle dog at 2 mg/kg, po; assay type: ADME, organism-based, Canis lupus familiaris; details: in vivo
[22] = Oral bioavailability in Sprague-Dawley rat at 2 mg/kg; assay type: ADME, organism-based; details: in vivo
[23] = Oral bioavailability in beagle dog at 2 mg/kg; assay type: ADME, organism-based, Canis lupus familiaris; details: in vivo
[24] = biological target: Orexin/Hypocretin receptor type 2 (Homo sapiens) (UniProt O43614)

SMILES | Ki [7] | Ki [8] | half-life [9] | other results
Cc1ccc(-n2nccn2)c(C(=O)N2CCN(c3nc4cc(Cl)ccc4o3)CC[C@H]2C)c1 [SUVOREXANT] |  |  |  | Occ [1]: 31%; concentration at 1 h [2]: 22 ng/mL; Activity [3]: Active; T1/2 [4]: 24 min; T1/2 [5]: 210 min; T1/2 [6]: 79 min
COc1ccc(N2C(=O)N(Cc3c(F)cccc3Cl)c3ccccc3S2(=O)=O)cc1OC | 7.94 nM | 0.794 nM |  | 
COc1cc(F)c(CN2C(=O)N(c3cc(OC)nc(OC)c3)S(=O)(=O)c3ccccc32)c(F)c1 | 1 nM | 0.251 nM | 16 min | 
COc1ccc(N2C(=O)N(Cc3ccc(Cl)cc3F)c3ccccc3S2(=O)=O)cc1OC | 63.1 nM | 10 nM |  | 
COc1ccc(N2C(=O)N(Cc3c(F)cc(F)cc3F)c3ccccc3S2(=O)=O)cc1OC | 50.1 nM | 2 nM |  | 
COc1ccc(N2C(=O)N(Cc3c(F)cc(F)cc3OC)c3ccccc3S2(=O)=O)cc1OC | 63.1 nM | 6.31 nM |  | 
COc1ccc(N2C(=O)N(Cc3ccc4c(c3)OCO4)c3ccccc3S2(=O)=O)cc1OC |  | 251 nM |  | 
COc1cc(F)c(CN2C(=O)N(c3ccc(OC)c(OC)c3)S(=O)(=O)c3ccccc32)c(F)c1 | 2 nM | 0.501 nM |  | 
COc1cc(N2C(=O)N(Cc3c(F)cc(F)cc3F)c3ccccc3S2(=O)=O)cnc1OC | 12.6 nM | 5.01 nM | 28 min | clearance [10]: 18 mL/min/kg; clearance [11]: 5 mL/min/kg; Vd [12]: 2.2 L/kg; Vd [13]: 3.6 L/kg; Kp at 0.5 h [14]: 0.77; Ratio [15]: 0.01; half-life [16]: 96 min; half-life [17]: 636 min; AUC [18]: 558 ng·h/mL; AUC [19]: 6960 ng·h/mL; Tmax [20]: 90 min; Tmax [21]: 24 min; bioavailability [22]: 29%; bioavailability [23]: 100%; T1/2 [24]: 4.3 min; T1/2 [6]: 3 min
COc1ccc(N2C(=O)N(Cc3c(F)cc(C)cc3Cl)c3ccccc3S2(=O)=O)cc1OC | 6.31 nM | 0.794 nM |  | 
COc1ccc(N2C(=O)N(Cc3ccc(F)cc3Cl)c3ccccc3S2(=O)=O)cc1OC | > 2510 nM | 25.1 nM |  | 
COc1cc(F)c(CN2C(=O)N(c3ccc(OC)c(OC)n3)S(=O)(=O)c3ccccc32)c(F)c1 |  | 0.2 nM | 8 min | 
COc1cc(N2C(=O)N(Cc3c(F)cc(F)cc3F)c3ccccc3S2(=O)=O)cc(OC)n1 | 15.8 nM | 1.26 nM | 16 min | clearance [10]: 17 mL/min/kg; Vd [12]: 3.9 L/kg; Kp at 0.5 h [14]: 1.51; Ratio ([15]; BLD = below limit of detection): BLD; half-life [16]: 198 min; AUC [18]: 705 ng·h/mL; Tmax [20]: 24 min; bioavailability [22]: 36%
COc1cc(F)c(CN2C(=O)N(c3cnc(OC)c(OC)c3)S(=O)(=O)c3ccccc32)c(F)c1 | 2.51 nM | 0.398 nM | 9 min | 
COc1ccc(N2C(=O)N(Cc3ccccc3F)c3ccccc3S2(=O)=O)cc1OC | 316 nM | 6.31 nM |  | 
CNc1cc(N2C(=O)N(Cc3c(F)cc(OC)cc3F)c3ncccc3S2(=O)=O)cnc1OC | 1.26 nM | 0.631 nM | 7 min | 
COc1cc(F)c(CN2C(=O)N(c3ccc(OC)c(OC)c3)S(=O)(=O)c3ccccc32)c(Cl)c1 | 0.398 nM | 0.1 nM |  | 
COc1ccc(N2C(=O)N(Cc3c(F)cc(F)cc3F)c3ncccc3S2(=O)=O)nc1OC | 25.1 nM | 1.58 nM | 16 min | clearance [10]: 29 mL/min/kg; Vd [12]: 2.3 L/kg; Kp at 0.5 h [14]: 0.84; Ratio [15]: 0.01; half-life [16]: 78 min; AUC [18]: 401 ng·h/mL; Tmax [20]: 30 min; bioavailability [22]: 34%
COc1ccc(N2C(=O)N(Cc3c(F)cc(F)cc3Cl)c3ccccc3S2(=O)=O)cc1OC | 25.1 nM | 1 nM |  | 
COc1cc(N2C(=O)N(Cc3c(F)cc(F)cc3Cl)c3ccccc3S2(=O)=O)cnc1OC | 39.8 nM | 1.58 nM | 23 min | clearance [10]: 34 mL/min/kg; Vd [12]: 3.5 L/kg; Kp at 0.5 h [14]: 0.79; Ratio [15]: 0.02; half-life [16]: 108 min; AUC [18]: 300 ng·h/mL; Tmax [20]: 48 min; bioavailability [22]: 29%
COc1ccc(-n2c(=O)c3ccccc3n(Cc3ccccc3Cl)c2=O)cc1OC | > 6310 nM | > 10000 nM |  | 
COc1ccc(N2C(=O)N(Cc3ccccc3)c3ccccc3S2(=O)=O)cc1OC | 2000 nM | 79.4 nM |  | 
COc1cc(N2C(=O)N(Cc3c(F)cc(F)cc3F)c3ccccc3S2(=O)=O)ccn1 | 398 nM | 63.1 nM | 23 min | 

Reference: ChEMBL document CHEMBL3739366, “Discovery of HTL6641, a dual orexin receptor antagonist with differentiated pharmacodynamic properties” (Medchemcomm, 2015)
